According to patent US11033539B2, “Compounds of formulas (VII), (VIII), (IX), (XI), (XII), (XIII), and (XIV) as muscarinic receptor 4(M4) antagonists for treating neurological diseases” (Neurocrine Biosciences, Inc., priority 2015, dated 2021):
Where two headings read alike, the source gives them in different places.

Target: human M4 receptor (Homo sapiens (Human), UniProt P08173)
Experiment: Radioligand (tritiated N-methylscopolamine) binding assay, M4
Procedure, shortened: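 Membranes came from recombinant CHO cells expressing human muscarinic subtypes and were incubated with compound and [3H]NMS (1.5 nM) in HEPES/NaCl/MgCl2/EDTA buffer, pH 7.4, at 37° C for 90 min. Twelve-point dose-response (printed 10–[…]). Filter-bound radioactivity was counted and Ki values derived.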

[1] = Ki against the M4 receptor, membranes from CHO cells expressing human M4, tritiated N-methylscopolamine 1.5 nM, read-out: Ki

Chain of human M4 receptor (P08173 whole entry): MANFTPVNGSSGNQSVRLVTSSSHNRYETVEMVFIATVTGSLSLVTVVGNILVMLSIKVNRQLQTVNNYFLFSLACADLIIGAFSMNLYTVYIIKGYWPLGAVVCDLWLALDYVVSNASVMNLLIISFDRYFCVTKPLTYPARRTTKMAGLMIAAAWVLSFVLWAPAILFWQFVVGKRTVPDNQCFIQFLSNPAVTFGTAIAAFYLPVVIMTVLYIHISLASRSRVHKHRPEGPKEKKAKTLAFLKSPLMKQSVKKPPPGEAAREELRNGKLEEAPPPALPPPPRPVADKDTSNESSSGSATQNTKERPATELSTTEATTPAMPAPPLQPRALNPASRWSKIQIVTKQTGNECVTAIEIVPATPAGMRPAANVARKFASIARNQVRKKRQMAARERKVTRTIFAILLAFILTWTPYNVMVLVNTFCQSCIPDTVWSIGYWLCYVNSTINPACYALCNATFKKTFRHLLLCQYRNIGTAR

Structure (SMILES)	Ki [1]	Ki
C[C@@H]1CN(c2ncc(C(F)(F)F)cn2)CCN1C(=O)NCCC1CCN(Cc2ccncc2)CC1 [6-31, (2R)-2-methyl-N-{2-[1-(pyridin-4-ylmethyl)piperidin-4-yl]ethyl}-4-[5-(trifluoromethyl)pyrimidin-2-yl]piperazine-1-carboxamide]	100 to 1000 nM	–
N#CC1(c2ccccc2)CCN(C(=O)NCCC2CCN(Cc3ccccc3)CC2)CC1 [8-33, N-[2-(1-benzylpiperidin-4-yl)ethyl]-4-cyano-4-phenylpiperidine-1-carboxamide]	–	100 to 1000 nM
C[C@@H]1CN(c2cc(F)c(F)cc2F)C[C@H](C)N1C(=O)NCCC1CCN(Cc2ccccc2)CC1 [22-6]	10 to 100 nM	–
N#Cc1cc(Cl)ccc1N1CCN(C(=O)NCCC2CCN(Cc3ccccc3)CC2)CC1 [8-7, N-[2-(1-benzylpiperidin-4-yl)ethyl]-4-(4-chloro-2-cyanophenyl)piperazine-1-carboxamide]	100 to 1000 nM	–
O=C(NCCC1CCN(Cc2ccccc2)CC1)c1ccc(-c2ccc(Cl)cc2)cc1F [9-12, N-[2-(1-benzylpiperidin-4-yl)ethyl]-4-(4-chlorophenyl)-2-fluorobenzamide]	10 to 100 nM	–
COc1cccc(N2CCN(C(=O)NCCC3CCN(Cc4ccccc4)CC3)[C@H](C)C2)n1 [4-51, (2R)-N-[2-(1-benzylpiperidin-4-yl)ethyl]-4-(6-methoxypyridin-2-yl)-2-methylpiperazine-1-carboxamide]	100 to 1000 nM	–
N#Cc1ccc(N2CCC(C(=O)NCCC3CCN(Cc4ccccc4)CC3)CC2)c(F)c1 [10-50, N-[2-(1-benzylpiperidin-4-yl)ethyl]-1-(4-cyano-2-fluorophenyl)piperidine-4-carboxamide]	100 to 1000 nM	–
N#Cc1cc(C(F)(F)F)ccc1N1CCN(C(=O)NCCC2CCN(Cc3ccccc3)CC2)CC1 [8-12, N-[2-(1-benzylpiperidin-4-yl)ethyl]-4-[2-cyano-4-(trifluoromethyl)phenyl]piperazine-1-carboxamide]	10 to 100 nM	–
CN(CCNC(=O)c1ccc(-c2ccc(OC(F)(F)F)cc2)cc1)[C@@H]1CCN(Cc2ccccc2)C1 [9-39, N-(2-{[(3R)-1-benzylpyrrolidin-3-yl](methyl)amino}ethyl)-4-[4-(trifluoromethoxy)phenyl]benzamide]	10 to 100 nM	–
CC(C)CNC(=O)c1cnc(N2CCN(C(=O)NCCC3CCN(Cc4ccccc4)CC3)[C@H](C)C2)nc1 [27-12]	10 to 100 nM	–
O=C(NCCC1CCN(Cc2ccccc2)CC1)C1CCN(c2ncc(Br)cn2)CC1 [9-37, N-[2-(1-benzylpiperidin-4-yl)ethyl]-1-(5-bromopyrimidin-2-yl)piperidine-4-carboxamide]	100 to 1000 nM	–
C[C@@H]1CN(c2ncc(C(F)(F)F)cn2)CCN1C(=O)NCCC1CCN(Cc2ccccn2)CC1 [6-33, (2R)-2-methyl-N-{2-[1-(pyridin-2-ylmethyl)piperidin-4-yl]ethyl}-4-[5-(trifluoromethyl)pyrimidin-2-yl]piperazine-1-carboxamide]	100 to 1000 nM	–
Cc1c(C(=O)NCCC2CCN(Cc3cccnc3)CC2)cnc2cc(-c3cccc(C(F)(F)F)c3)nn12 [19-1, 7-methyl-N-{2-[1-(pyridin-3-ylmethyl)piperidin-4-yl]ethyl}-2-[3-(trifluoromethyl)phenyl]pyrazolo[1,5-a]pyrimidine-6-carboxamide]	100 to 1000 nM	–
C[C@@H]1CN(c2ncc(F)cn2)C[C@H](C)N1C(=O)NCCC1CCN(Cc2ccccc2)CC1 [5-19, (2S,6R)-N-[2-(1-benzylpiperidin-4-yl)ethyl]-4-(5-fluoropyrimidin-2-yl)-2,6-dimethylpiperazine-1-carboxamide]	10 to 100 nM	–
Cc1c(C(=O)NCCC2CCN(Cc3ccccc3)CC2)cnc2cc(-c3cccc(C#N)c3)nn12 [18-8]	10 to 100 nM	–
COc1ccc(-c2cc3ncc(C(=O)NCCC4CCN(Cc5ccccc5)CC4)c(C)n3n2)cc1 [9-51, N-[2-(1-benzylpiperidin-4-yl)ethyl]-2-(4-methoxyphenyl)-7-methylpyrazolo[1,5-a]pyrimidine-6-carboxamide]	100 to 1000 nM	–
C[C@@H]1CN(c2cnc(C(F)(F)F)nc2)C[C@H](C)N1C(=O)NCCC1CCN(Cc2ccc(O)cc2)CC1 [6-54, (2R,6S)-N-(2-{1-[(4-hydroxyphenyl)methyl]piperidin-4-yl}ethyl)-2,6-dimethyl-4-[2-(trifluoromethyl)pyrimidin-5-yl]piperazine-1-carboxamide]	10 to 100 nM	–
Cc1c(C(=O)NCCC2CCN(Cc3ccccc3)CC2)cnc2cc(-c3ccc(F)nc3)nn12 [18-15]	100 to 1000 nM	–
O=C(OCCC1CCN(Cc2ccccc2)CC1)N1CCN(c2cccc(OC(F)(F)F)c2)CC1 [12-4, 2-(1-benzylpiperidin-4-yl)ethyl 4-[3-(trifluoromethoxy)phenyl]piperazine-1-carboxylate]	10 to 100 nM	–
C[C@@H]1CN(c2ncc(C#N)cn2)C[C@H](C)N1C(=O)NCCC1CCN(CC2CCCS(=O)(=O)C2)CC1 (stereo partly drawn) [21-11, (2R,6S)-4-(5-cyanopyrimidin-2-yl)-N-(2-{1-[(1,1-dioxo-1-thian-3-yl)methyl]piperidin-4-yl}ethyl)-2,6-dimethylpiperazine-1-carboxamide]	100 to 1000 nM	–
O=C(NCCC1CCN(Cc2cccc3c2OCC3)CC1)C1CCN(c2ccc(OC(F)(F)F)cc2)CC1 [11-29, N-{2-[1-(2,3-dihydro-1-benzofuran-7-ylmethyl)piperidin-4-yl]ethyl}-1-[4-(trifluoromethoxy)phenyl]piperidine-4-carboxamide]	100 to 1000 nM	–
COC1(C(=O)NCCC2CCN(Cc3ccccc3)CC2)CCN(c2ccc(OC(F)(F)F)cc2)CC1 [10-38, N-[2-(1-benzylpiperidin-4-yl)ethyl]-4-methoxy-1-[4-(trifluoromethoxy)phenyl]piperidine-4-carboxamide]	10 to 100 nM	–
O=C(NCCC1(CO)CCN(Cc2ccccc2)CC1)C1CCN(c2cccc(OC(F)(F)F)c2)CC1 [9-11, N-{2-[1-benzyl-4-(hydroxymethyl)piperidin-4-yl]ethyl}-1-[3-(trifluoromethoxy)phenyl]piperidine-4-carboxamide]	10 to 100 nM	–
C[C@@H]1CN(c2ncc(C#N)cn2)C[C@H](C)N1C(=O)NCCC1CCN(Cc2ccc3c(c2)nnn3C)CC1 [6-66, (2R,6S)-4-(5-cyanopyrimidin-2-yl)-2,6-dimethyl-N-(2-{1-[(1-methyl-1H-1,2,3-benzotriazol-5-yl)methyl]piperidin-4-yl}ethyl)piperazine-1-carboxamide]	100 to 1000 nM	–
N#Cc1ccc(N2CCN(C(=O)NCCC3CCN(Cc4ccccc4)CC3)CC2)cc1 [8-27, N-[2-(1-benzylpiperidin-4-yl)ethyl]-4-(4-cyanophenyl)piperazine-1-carboxamide]	100 to 1000 nM	–
Cc1c(C(=O)NCCC2CCN(Cc3ccc(O)cc3)CC2)cnc2cc(-c3ccccc3)nn12 [19-8]	100 to 1000 nM	–
Cc1ccnc(N2CCC(C(=O)NCCC3CCN(Cc4ccccc4)CC3)CC2)c1 [9-52, N-[2-(1-benzylpiperidin-4-yl)ethyl]-1-(4-methylpyridin-2-yl)piperidine-4-carboxamide]	100 to 1000 nM	–
C[C@@H]1CN(c2ccnc(C(F)(F)F)c2)CCN1C(=O)NCCC1CCN(Cc2ccccc2)CC1 [22-29]	10 to 100 nM	–
N#Cc1ccc(N2CCC(C(=O)NCCC3CCN(Cc4ccc5[nH]ccc5c4)CC3)CC2)nc1 [6-11, 1-(5-cyanopyridin-2-yl)-N-{2-[1-(1H-indol-5-ylmethyl)piperidin-4-yl]ethyl}piperidine-4-carboxamide]	10 to 100 nM	–
